Experimental findings from patent US9017692B2, “Antimicrobial agent, bacterial strain, biosynthesis, and methods of use” (priority 2011, dated 2015) are described below.

Values after ≈ are worked out from the molar mass of the structure shown.

The test system of assay [1] is DR-MRSA from MW2 SP SAU.1616. Description: microbe, parasite or virus in culture. The following applies: SAU.1616, DR-MRSA from MW2 SP; NBS 96-well plates. The method, then:
(§1) The activity of paenibacterin against several strains of Gram-positive and Gram-negative foodborne pathogens is summarized in Table 10. The data is reported as minimum inhibitory concentrations (MIC) as an average of three replicates for paenibacterin against the various listed bacterial strains. […] MICs were determined according to the CLSI broth microdilution method (see, Clinical and Laboratory Standards Institute (CLSI). 2009. Methods for dilution antimicrobial susceptibility tests for bacteria that grow aerobically; approved standard. […]. CLSI, Wayne, Pa.). Briefly, HPLC-purified paenibacterin was dissolved in methanol and diluted to appropriate concentration with cation-adjusted Mueller-Hinton II broth (Difco). Aliquots (25 μl) of serially-diluted paenibacterin was dispensed into wells of a 96-well plate; an equal amount of 1/10 diluted overnight bacterial culture was added to wells. Plates were incubated at 35° C. for 24 h. Cell growth after incubation was examined and determined using a microtiter plate reader at 600 nm. Concentration of paenibacterin is determined based on a molecular weight of 1604 Da.
(§2) The activity of paenibacterin was further tested against clinical isolates of the following Gram-positive bacteria: methicillin-sensitive Staphylococcus aureus (MSSA), methicillin-resistant S. aureus (MRSA), vancomycin-sensitive Enterococcus faecalis, vancomycin-resistant E. faecalis (VRE), Streptococcus pneumoniae, and laboratory derived daptomycin-resistant (DR) MSSA, MRSA, and VRE strains. The MICs were determined using the above described CLSI broth microdilution method, in which the method was performed with non-binding surface coated (NBS) 96-well plates.

The test system of assay [2] is DR-MSSA from SAU.42 SAU.278. Description: microbe, parasite or virus in culture. Particulars: SAU.278, DR-MSSA from SAU.42; NBS 96-well plates. The method, then: as §1, §2
The subject of assay [3] is DR-VRE from EFS.807 EFS.2731. Description: microbe, parasite or virus in culture. Particulars: EFS.2731, DR-VRE from EFS.807; NBS 96-well plates. The method, then: as §1, §2
In assay [4] the test system is DS-VRE ATCC 700802 EFS.807. Kind of assay: microbe, parasite or virus in culture. Particulars: ATCC 700802. Here is the method:
as §1, §2

A further assay deals with MRSA ATCC 43300 SAU.399. Description: microbe, parasite or virus in culture. Particulars: ATCC 43300. The method, then:
as §1, §2

A further assay concerns MSSA ATCC 29213 SAU.42. Kind of assay: microbe, parasite or virus in culture. The following applies: ATCC 29213. The method, then: as §1, §2
The test system of the next assay is WT ATCC 29212 EFS.43. Kind of assay: microbe, parasite or virus in culture. Particulars: ATCC 29212. The method, then: as §1, §2
For a further assay, the system named is WT ATCC 49619 SPN.31. Kind of assay: microbe, parasite or virus in culture. The following applies: ATCC 49619. The method, then:
as §1, §2

In the next assay the test system is PAE.2281. Description: MIC, CLSI broth microdilution, Gram-negative clinical isolates. In kind it is cell-based, Pseudomonas aeruginosa. The method, then: (§3) Plates were incubated at 35° C. for 24 h.
(§4) The activity of paenibacterin was also tested against clinical isolates of the following Gram-negative bacterial strains: four strains of the species Pseudomonas aeruginosa (PAE), three strains of the species Acinetobacter baumannii (ABA), two strains of the species Escherichia coli (ECO), and four strains of the species Klebsiella pneumoniae (KPN). Particularly, the strains of Gram-negative bacteria included polymyxin B-resistant (PMB-R) and polymyxin B-sensitive (PMB-S) strains of each above listed species. The MICs were determined using the above described CLSI broth microdilution method, in which the method was performed with both non-binding surface coated (NBS) and polystyrene (PS) 96-well plates (Tables 11 and 12, respectively). The MICs were generally lower in the NBS 96-well plates as compared to the PS 96-well plates.
(In broth dilution the organism is exposed to a series of concentrations in liquid medium.)

For a further assay, the system named is PAE.2325. The description is as above. Format: cell-based, Pseudomonas aeruginosa. Here is the method: as §3, §4
In the next assay the test system is PAE.44. The assay is described as above. Format: cell-based, Pseudomonas aeruginosa. Here is the method:
as §3, §4

Another assay deals with PAE.999. The assay is described as above. Format: cell-based, Pseudomonas aeruginosa. Here is the method:
as §3, §4

The next assay deals with ABA.1570. The description is as above. In kind it is cell-based, Acinetobacter baumannii. Here is the method:
as §3, §4

In another assay the test system is ABA.2232. The assay is described as above. Format: cell-based, Acinetobacter baumannii. Here is the method:
as §3, §4

In a further assay the test system is ABA.2315. The description is as above. In kind it is cell-based, Acinetobacter baumannii. Here is the method:
as §3, §4

The next assay deals with ATCC 25922 ECO.35. The assay is described as above. Format: cell-based, Escherichia coli. Here is the method: as §3, §4
In the next assay the test system is ECO.2276. The assay is described as above. In kind it is cell-based, Escherichia coli. The method, then:
as §3, §4

A further assay relates to KPN.2317. The assay is described as above. Format: cell-based, Klebsiella pneumoniae. Here is the method:
as §3, §4

Another assay concerns KPN.674. The assay is described as above. Format: cell-based, Klebsiella pneumoniae. The method, then:
as §3, §4

The test system of a further assay is PMB-R, KPN.2463. The assay is described as above. Format: cell-based, Klebsiella pneumoniae. The method, then: as §3, §4
In a further assay the test system is PMB-S, KPN.2461. The assay is described as above. Format: cell-based, Klebsiella pneumoniae. Here is the method: as §3, §4

With `CCCCCCCCCC(=O)N[C@@H](Cc1c[nH]c2ccccc12)C(=O)N[C@H](CC(N)=O)C(=O)N[C@@H](CC(=O)O)C(=O)N[C@@H]1C(=O)NCC(=O)N[C@@H](CCCN)C(=O)N[C@@H](CC(=O)O)C(=O)N[C@H](C)C(=O)N[C@@H](CC(=O)O)C(=O)NCC(=O)N[C@H](CO)C(=O)N[C@@H]([C@H](C)CC(=O)O)C(=O)N[C@@H](CC(=O)c2ccccc2N)C(=O)O[C@@H]1C` [daptomycin], the “Minimum inhibitory concentration (MIC)” value is 16 µg/mL (≈ 9.87 µM) in [1]; 8 µg/mL (≈ 4.94 µM) in assay [2]; >32 µg/mL in assay [3]; 1 µg/mL (≈ 0.617 µM) in assay [4]; 0.5 µg/mL (≈ 0.309 µM) in the assay on MRSA ATCC 43300 SAU.399; 0.5 µg/mL (≈ 0.309 µM) with MSSA ATCC 29213 SAU.42. Moreover, the “Minimum inhibitory concentration (MIC)” value in the assay on WT ATCC 29212 EFS.43 worked out at 2 µg/mL (≈ 1.23 µM); in the assay on WT ATCC 49619 SPN.31, 0.5 µg/mL (≈ 0.309 µM).
Take polymyxin B sulfate: the “Minimum inhibitory concentration (MIC)” value was 16 µg/mL with PAE.2281 (NBS 96-well plates); 16 µg/mL in the assay with PAE.2281 (PS 96-well plates); 0.25 µg/mL with PAE.2325 (NBS 96-well plates); 2 µg/mL in the assay with PAE.2325 (PS 96-well plates); 0.125 µg/mL with PAE.44 (non-binding surface coated (NBS) 96-well plates); 2 µg/mL with PAE.44 (polystyrene (PS) 96-well plates). In addition, the “Minimum inhibitory concentration (MIC)” value amounted to 0.25 µg/mL in the assay with PAE.999 (NBS 96-well plates); 2 µg/mL in the assay with PAE.999 (PS 96-well plates); 0.0625 µg/mL in the assay on ABA.1570 (NBS 96-well plates); 0.06 µg/mL in the assay on ABA.1570 (NBS 96-well plates, listed as polymyxin B); 2 µg/mL with ABA.1570 (PS 96-well plates); 0.06 µg/mL with ABA.2232 (NBS 96-well plates). The “Minimum inhibitory concentration (MIC)” value in the assay with ABA.2232 (PS 96-well plates) was found to be 2 µg/mL; in the assay with ABA.2315 (NBS 96-well plates), 8 µg/mL; in the assay with ABA.2315 (PS 96-well plates) it was 64 µg/mL; with ATCC 25922 ECO.35 (ECO.35 (ATCC 25922), NBS 96-well plates) it was 0.06 µg/mL; in the assay on ATCC 25922 ECO.35 (ECO.35, PS 96-well plates) it was 2 µg/mL; in the assay with ECO.2276 (NBS 96-well plates), 8 µg/mL. Moreover, the “Minimum inhibitory concentration (MIC)” value in the assay on ECO.2276 (PS 96-well plates) was 8 µg/mL; in the assay on KPN.2317 (NBS 96-well plates) it was >64 µg/mL; in the assay on KPN.2317 (PS 96-well plates), >64 µg/mL; with KPN.674 (NBS 96-well plates), 0.125 µg/mL; with KPN.674 (PS 96-well plates), 2 µg/mL; with PMB-R, KPN.2463 (KPN.2463 (PMB-R), NBS 96-well plates), 2 to 8 µg/mL. The “Minimum inhibitory concentration (MIC)” value is 32 µg/mL in the assay on PMB-R, KPN.2463 (KPN.2463, PS 96-well plates); 0.06 to 0.13 µg/mL in the assay on PMB-S, KPN.2461 (KPN.2461 (PMB-S), NBS 96-well plates); 2 µg/mL in the assay on PMB-S, KPN.2461 (KPN.2461, PS 96-well plates).
